According to the Kinase Knowledgebase extract (Sharma et al. 2016):

Molecular target: ROCK2 (human) (UniProt O75116)
Test: Assessment of ROCK2 Kinase Activity

ROCK2 (human), sequence (O75116 whole entry, looked up): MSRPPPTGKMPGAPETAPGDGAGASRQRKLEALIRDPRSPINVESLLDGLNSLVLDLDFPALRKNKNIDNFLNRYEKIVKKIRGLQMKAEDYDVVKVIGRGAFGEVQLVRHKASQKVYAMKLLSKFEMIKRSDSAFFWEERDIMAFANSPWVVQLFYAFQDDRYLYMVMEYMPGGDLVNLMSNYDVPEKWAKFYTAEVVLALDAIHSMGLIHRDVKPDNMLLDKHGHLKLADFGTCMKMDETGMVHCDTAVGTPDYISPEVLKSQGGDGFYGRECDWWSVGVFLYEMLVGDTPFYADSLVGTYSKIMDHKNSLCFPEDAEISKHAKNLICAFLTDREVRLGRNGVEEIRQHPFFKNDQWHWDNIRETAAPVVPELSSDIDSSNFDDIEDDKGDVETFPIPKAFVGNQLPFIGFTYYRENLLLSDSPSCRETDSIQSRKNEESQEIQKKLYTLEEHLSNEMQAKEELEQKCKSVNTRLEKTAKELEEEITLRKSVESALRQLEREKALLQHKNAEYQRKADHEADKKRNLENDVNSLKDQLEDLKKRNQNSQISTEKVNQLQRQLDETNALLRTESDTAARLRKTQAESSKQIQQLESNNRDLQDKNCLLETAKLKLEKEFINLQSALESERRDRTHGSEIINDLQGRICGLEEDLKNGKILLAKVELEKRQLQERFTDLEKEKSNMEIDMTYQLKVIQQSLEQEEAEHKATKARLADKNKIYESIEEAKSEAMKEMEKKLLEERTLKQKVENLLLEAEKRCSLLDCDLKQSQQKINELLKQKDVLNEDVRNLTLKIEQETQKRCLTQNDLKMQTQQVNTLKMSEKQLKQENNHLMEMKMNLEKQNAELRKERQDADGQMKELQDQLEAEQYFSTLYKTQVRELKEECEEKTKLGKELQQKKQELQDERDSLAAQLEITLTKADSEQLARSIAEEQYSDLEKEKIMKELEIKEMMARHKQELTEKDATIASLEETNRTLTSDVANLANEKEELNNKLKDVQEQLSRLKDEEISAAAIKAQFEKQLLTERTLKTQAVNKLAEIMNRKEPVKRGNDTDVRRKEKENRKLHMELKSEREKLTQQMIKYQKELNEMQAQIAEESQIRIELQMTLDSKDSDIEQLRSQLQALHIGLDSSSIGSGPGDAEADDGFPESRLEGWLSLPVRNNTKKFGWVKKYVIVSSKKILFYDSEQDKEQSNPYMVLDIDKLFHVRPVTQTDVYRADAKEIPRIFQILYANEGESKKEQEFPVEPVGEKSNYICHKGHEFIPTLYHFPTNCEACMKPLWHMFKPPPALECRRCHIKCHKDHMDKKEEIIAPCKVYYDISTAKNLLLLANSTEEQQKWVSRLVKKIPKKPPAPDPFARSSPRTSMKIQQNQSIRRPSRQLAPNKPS

IC50 [nM]	Compound
< 1	COc1cccc(CN(C)C(=O)Nc2ccc(-c3cn[nH]c3)cc2OCCN(C)C)c1
3	O=C(NCc1cccc(F)c1)Nc1ccc(-c2cn[nH]c2)cc1
8	COc1cccc(CN(C)C(=O)Nc2ccc(-c3cn[nH]c3)cc2N(C)CCN(C)C)c1
< 1	COc1cccc(CNC(=O)Nc2ccc(-c3cn[nH]c3)cc2Cl)c1
44	COc1cccc(CNC(=O)Nc2ccc(-c3ccnc(N)c3)cc2)c1
< 1	COc1cccc(CNC(=O)Nc2ccc(-c3cn[nH]c3)cc2OCCN(C)C)c1
33	Cc1cccc(CNC(=O)Nc2ccc(-c3cn[nH]c3)cc2)c1
6	CCN(Cc1cccc(OC)c1)C(=O)Nc1ccc(-c2cn[nH]c2)cc1N(C)CCN(C)C
2	COc1cccc(CNC(=O)Nc2ccc(-c3c[nH]nc3C)cc2)c1
2750	COc1ccc(CNC(=O)Nc2ccc(-c3cn[nH]c3)cc2)cc1
< 1	CCN(Cc1cccc(OC)c1)C(=O)Nc1ccc(-c2cn[nH]c2)cc1OCCN1CCCC1
5	COc1cccc(CNC(=O)Nc2ccc(-c3ccncc3)cc2)c1
< 1	COc1cccc(CNC(=O)Nc2ccc(-c3cn[nH]c3)cc2N(C)C)c1
3	CCN(Cc1cccc(OC)c1)C(=O)Nc1ccc(-c2cn[nH]c2)cc1OCCN(C)C
< 1	COc1cccc(CNC(=O)Nc2ccc(-c3cn[nH]c3)cc2N(C)CCN(C)C)c1
26	COc1ccccc1CNC(=O)Nc1ccc(-c2cn[nH]c2)cc1
17	O=C(NCc1cccc(Cl)c1)Nc1ccc(-c2cn[nH]c2)cc1
< 1	COc1cccc(CN(C)C(=O)Nc2ccc(-c3cn[nH]c3)cc2OCCN2CCCC2)c1
< 1	COc1cccc(CNC(=O)Nc2ccc(-c3cn[nH]c3)cc2F)c1
< 1	COc1cccc(CNC(=O)Nc2ccc(-c3cn[nH]c3)cc2OCCN2CCCC2)c1
13	COc1cccc(CNC(=O)Nc2ccc(-c3ccnc(N)n3)cc2)c1
2	COc1cccc(CNC(=O)Nc2ccc(-c3cn[nH]c3)cc2)c1
188	COc1cccc(CNC(=O)Nc2ccc(-c3ncnc4[nH]ccc34)cc2)c1
3	Nc1cccc(CNC(=O)Nc2ccc(-c3cn[nH]c3)cc2)c1
18	O=C(NCc1ccccc1)Nc1ccc(-c2cn[nH]c2)cc1
< 1	COc1cccc(CNC(=O)Nc2ccc(-c3cn[nH]c3)cc2OC)c1
